Test results from patent publication US20240150365A1 (Hotspot Therapeutics, Inc., priority 2022, published 2024).
Values belong to the compound of their own block, whether it stands above or below them.

Key:
MALT1 = biological target: T1, MALT1 (Homo sapiens, UniProt Q9UDY8); test: MALT-1 Fluorogenic Peptide Cleavage Assay (MALT1 inhibition assay); assay type: biochemical; settings: Avi-tagged FL MALT-1, Ac-LRSR-AMC peptide substrate, 30 min pre-incubation, 90 min reaction
T1 construct: Avi-tagged FL MALT-1 (Pharmaron, stored at −70° C.); Avi tag
T1 sequence (Q9UDY8 1-824): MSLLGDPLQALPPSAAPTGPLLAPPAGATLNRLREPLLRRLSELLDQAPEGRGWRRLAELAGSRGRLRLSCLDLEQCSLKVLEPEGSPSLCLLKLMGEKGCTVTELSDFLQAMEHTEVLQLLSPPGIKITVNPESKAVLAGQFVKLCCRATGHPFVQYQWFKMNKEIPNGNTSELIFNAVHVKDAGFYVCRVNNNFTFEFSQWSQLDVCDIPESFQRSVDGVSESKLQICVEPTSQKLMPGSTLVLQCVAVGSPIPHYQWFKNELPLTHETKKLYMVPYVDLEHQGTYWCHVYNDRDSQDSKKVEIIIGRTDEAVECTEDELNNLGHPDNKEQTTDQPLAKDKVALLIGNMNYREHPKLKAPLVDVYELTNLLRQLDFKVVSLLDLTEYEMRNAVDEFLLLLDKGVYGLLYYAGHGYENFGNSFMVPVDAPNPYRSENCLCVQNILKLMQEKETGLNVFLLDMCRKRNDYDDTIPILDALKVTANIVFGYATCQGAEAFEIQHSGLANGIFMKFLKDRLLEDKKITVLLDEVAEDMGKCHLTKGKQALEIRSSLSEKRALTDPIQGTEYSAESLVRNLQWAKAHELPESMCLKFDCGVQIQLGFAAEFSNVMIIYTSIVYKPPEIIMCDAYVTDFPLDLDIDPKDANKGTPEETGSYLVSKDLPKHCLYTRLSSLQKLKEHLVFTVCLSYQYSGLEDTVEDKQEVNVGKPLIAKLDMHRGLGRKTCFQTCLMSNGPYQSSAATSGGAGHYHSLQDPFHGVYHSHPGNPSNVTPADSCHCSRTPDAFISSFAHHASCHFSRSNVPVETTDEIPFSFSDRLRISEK
Outline: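 Avi-tagged full-length MALT1 pre-incubated 30 min with compound (2% DMSO final), then cleavage of Ac-LRSR-AMC followed over 90 min at room temperature. AMC fluorescence read at 342/441 nm; % inhibition fitted to sigmoidal curves for IC50.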

NF-kB = NF-kB reporter assay in Jurkat cells stimulated with aCD3/aCD28/PMA; assay type: cell-based; settings: Homo sapiens, Jurkat, Jurkat cells, 1 hr compound incubation, aCD3/aCD28/PMA stimulation 4 hr, One-Glo readout; read-out: NF-kB Reporter Assay IC50
Outline: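 Jurkat cells (25,000/well, serum-free RPMI 1640) preincubated 1 hr at 37° C with serially diluted compound, then stimulated with aCD3/aCD28/PMA (final 5 μg/mL, 5 μg/mL, 0.03 μg/mL) for 4 hr. Reporter luminescence read with One-Glo; IC50 derived.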

IC50 (MALT1): > 2500 nM
IC50 (NF-kB): > 2500 nM
Compound: Cn1ccc(-c2ccc(S(=O)(=O)Nc3cccc4cnn(C)c34)cn2)cc1=O [Example I-117, 1′-Methyl-N-(1-Methyl-1H-Indazol-7-yl)-2′-Oxo-1′,2′-Dihydro-[2,4′-Bipyridine]-5-Sulfonamide]

IC50 (MALT1): > 2500 nM
IC50 (NF-kB): > 2500 nM
Compound: Cn1ncc2cccc(NS(=O)(=O)c3ccc(-c4cccc(=O)[nH]4)nc3)c21 [Example I-118, N-(1-Methyl-1H-Indazol-7-yl)-6′-Oxo-1′,6′-Dihydro-[2,2′-Bipyridine]-5-Sulfonamide]

IC50 (MALT1): > 2500 nM
IC50 (NF-kB): < 400 nM
Compound: Cn1ncc2cccc(NS(=O)(=O)c3ccc(-c4ccncc4F)nc3)c21 [Example I-120, 3′-Fluoro-N-(1-Methylindazol-7-yl)-[2,4′-Bipyridine]-5-Sulfonamide]

IC50 (MALT1): > 2500 nM
IC50 (NF-kB): < 400 nM
Compound: Cc1ccc(-c2ccc(S(=O)(=O)Nc3cccc4cnn(C)c34)cn2)cn1 [Example I-122, 6′-Methyl-N-(1-Methyl-1H-Indazol-7-yl)-[2,3′-Bipyridine]-5-Sulfonamide]

IC50 (MALT1): > 2500 nM
IC50 (NF-kB): 400 to 1000 nM
Compound: Cc1ccncc1-c1ccc(S(=O)(=O)Nc2cccc3cnn(C)c23)cn1 [Example I-123, 4′-Methyl-N-(1-Methyl-1H-Indazol-7-yl)-2,3′-Bipyridine-5-Sulfonamide]

IC50 (MALT1): > 2500 nM
IC50 (NF-kB): < 400 nM
Compound: Cc1cncc(-c2ccc(S(=O)(=O)Nc3cccc4cnn(C)c34)cn2)c1 [Example I-131, 5′-methyl-N-(1-methylindazol-7-yl)-[2,3′-bipyridine]-5-sulfonamide]

IC50 (MALT1): > 2500 nM
IC50 (NF-kB): < 400 nM
Compound: Cc1cc(-c2ccc(S(=O)(=O)Nc3cccc4cnn(C)c34)cn2)ccn1 [Example I-132, 2′-methyl-N-(1-methylindazol-7-yl)-[2,4′-bipyridine]-5-sulfonamide]

IC50 (MALT1): > 2500 nM
IC50 (NF-kB): < 400 nM
Compound: Cn1ncc2cccc(NS(=O)(=O)c3ccc(-c4cncc(F)c4)nc3)c21 [Example I-134, 5′-Fluoro-N-(1-Methyl-1H-Indazol-7-yl)-[2,3′-Bipyridine]-5-Sulfonamide]

IC50 (MALT1): > 2500 nM
IC50 (NF-kB): 400 to 1000 nM
Compound: Cc1ncc(-c2ccc(S(=O)(=O)Nc3cccc4cnn(C)c34)cn2)cn1 [Example I-135, N-(1-Methyl-1H-Indazol-7-yl)-6-(2-Methylpyrimidin-5-yl)Pyridine-3-Sulfonamide]

IC50 (MALT1): > 2500 nM
IC50 (NF-kB): > 2500 nM
Compound: Cn1ncc2cccc(NS(=O)(=O)c3ccc(-c4ccc(O)nc4)nc3)c21 [Example I-136, 6′-Hydroxy-N-(1-Methyl-1H-Indazol-7-yl)-[2,3′-Bipyridine]-5-Sulfonamide]

IC50 (MALT1): > 2500 nM
IC50 (NF-kB): < 400 nM
Compound: COc1ncccc1-c1ccc(S(=O)(=O)Nc2cccc3cnn(C)c23)cn1 [Example I-139, 2′-Methoxy-N-(1-Methyl-1H-Indazol-7-yl)-[2,3′-Bipyridine]-5-Sulfonamide]

More lines, now with the values behind:

Compound: Cc1cc(-c2ccc(S(=O)(=O)Nc3cccc4cnn(C)c34)cn2)n(C)n1 [Example I-119, 6-(2,5-Dimethylpyrazol-3-yl)-N-(1-Methyl-Indazol-7-yl)Pyridine-3-Sulfonamide]
IC50 (MALT1): > 2500 nM
IC50 (NF-kB): < 400 nM

Compound: Cn1ncc2cccc(NS(=O)(=O)c3ccc(-c4cncc(Cl)c4)nc3)c21 [Example I-121, 5′-Chloro-N-(1-Methyl-1H-Indazol-7-yl)-[2,3′-Bipyridine]-5-Sulfonamide]
IC50 (MALT1): > 2500 nM
IC50 (NF-kB): < 400 nM

Compound: Cc1cnn(C)c1-c1ccc(S(=O)(=O)Nc2cccc3cnn(C)c23)cn1 [Example I-124, 6-(1,4-Dimethyl-1H-Pyrazol-5-yl)-N-(1-Methyl-1H-Indazol-7-yl)Pyridine-3-Sulfonamide]
IC50 (MALT1): > 2500 nM
IC50 (NF-kB): > 2500 nM

Compound: COc1nn(C)cc1-c1ccc(S(=O)(=O)Nc2cccc3cnn(C)c23)cn1 [Example I-125, 6-(3-Methoxy-1-Methyl-1H-Pyrazol-4-yl)-N-(1-Methyl-1H-Indazol-7-yl)Pyridine-3-Sulfonamide]
IC50 (MALT1): > 2500 nM
IC50 (NF-kB): < 400 nM

Compound: CCc1ccc2cnn(C)c2c1NS(=O)(=O)c1ccc(-n2nccc2C(F)(F)F)nc1 [Example I-126, N-(6-ethyl-1-methyl-1H-indazol-7-yl)-6-(5-(trifluoromethyl)-1H-pyrazol-1-yl)pyridine-3-sulfonamide]
IC50 (MALT1): < 400 nM
IC50 (NF-kB): < 400 nM

Compound: COc1ccc2cnn(C)c2c1NS(=O)(=O)c1ccc(-n2ccc(C(F)F)n2)nc1 [Example I-127, 6-(3-(Difluoromethyl)-1H-Pyrazol-1-yl)-N-(6-Methoxy-1-Methyl-1H-Indazol-7-yl)Pyridine-3-Sulfonamide]
IC50 (MALT1): < 400 nM
IC50 (NF-kB): < 400 nM

Compound: COc1ccc2nnn(C)c2c1NS(=O)(=O)c1ccc(-n2ccc(C(F)(F)F)n2)nc1 [Example I-128, N-(6-methoxy-1-methyl-1H-benzo[d][1,2,3]triazol-7-yl)-6-(3-(trifluoromethyl)-1H-pyrazol-1-yl)pyridine-3-sulfonamide]
IC50 (MALT1): 1000 to 2500 nM
IC50 (NF-kB): 400 to 1000 nM

Compound: COc1ccc2cnn(C)c2c1NS(=O)(=O)c1ccc(-n2cc(C)c(C)n2)nc1 [Example I-129, 6-(3,4-dimethyl-1H-pyrazol-1-yl)-N-(6-methoxy-1-methyl-1H-indazol-7-yl)pyridine-3-sulfonamide]
IC50 (MALT1): < 400 nM
IC50 (NF-kB): < 400 nM

Compound: Cn1ncc2cccc(NS(=O)(=O)c3ccc(-c4cncc(C#N)c4)nc3)c21 [Example I-130, 5′-cyano-N-(1-methylindazol-7-yl)-[2,3′-bipyridine]-5-sulfonamide]
IC50 (MALT1): > 2500 nM
IC50 (NF-kB): 1000 to 2500 nM

Compound: Cn1ncc2cccc(NS(=O)(=O)c3ccc(-c4cncnc4)nc3)c21 [Example I-133, N-(1-methylindazol-7-yl)-6-(pyrimidin-5-yl)pyridine-3-sulfonamide]
IC50 (MALT1): > 2500 nM
IC50 (NF-kB): > 2500 nM

Compound: Cn1ncc2cccc(NS(=O)(=O)c3ccc(-c4cncc(S(C)(=O)=O)c4)nc3)c21 [Example I-137, N-(1-Methyl-1H-Indazol-7-yl)-5′-(Methylsulfonyl)-[2,3′-Bipyridine]-5-Sulfonamide]
IC50 (MALT1): > 2500 nM
IC50 (NF-kB): > 2500 nM

Compound: Cn1ncc2cccc(NS(=O)(=O)c3ccc(-c4ccn(C(F)F)n4)nc3)c21 [Example I-138, 6-(1-(Difluoromethyl)-1H-Pyrazol-3-yl)-N-(1-Methyl-1H-Indazol-7-yl)Pyridine-3-Sulfonamide]
IC50 (MALT1): > 2500 nM
IC50 (NF-kB): < 400 nM

Compound: COc1ccc2cnn(C)c2c1NS(=O)(=O)c1ccc(-n2nc(C)c(C)c2C)nc1 [Example I-140, N-(6-Methoxy-1-Methyl-1H-Indazol-7-yl)-6-(3,4,5-Trimethyl-1H-Pyrazol-1-yl)Pyridine-3-Sulfonamide]
IC50 (MALT1): < 400 nM
IC50 (NF-kB): < 400 nM

Compound: COc1ccc2cnn(C)c2c1NS(=O)(=O)c1ccc(-n2nc(C)c(Cl)c2C)nc1 [Example I-141, 6-(4-Chloro-3,5-Dimethyl-1H-Pyrazol-1-yl)-N-(6-Methoxy-1-Methyl-1H-Indazol-7-yl)Pyridine-3-Sulfonamide]
IC50 (MALT1): < 400 nM
IC50 (NF-kB): < 400 nM

Compound: COc1ccc2cnn(C)c2c1NS(=O)(=O)c1ccc(-n2nc(C)cc2C)nc1 [Example I-142, 6-(3,5-Dimethyl-1H-Pyrazol-1-yl)-N-(6-Methoxy-1-Methyl-1H-Indazol-7-yl)Pyridine-3-Sulfonamide]
IC50 (MALT1): < 400 nM
IC50 (NF-kB): < 400 nM

Compound: Cn1ccc2cccc(NS(=O)(=O)c3ccc(-c4cc(C(F)(F)F)n[nH]4)nc3)c21 [Example I-143, N-(1-Methyl-1H-Indol-7-yl)-6-(5-(Trifluoromethyl)-1H-Pyrazol-3-yl)Pyridine-3-Sulfonamide]
IC50 (MALT1): < 400 nM
IC50 (NF-kB): < 400 nM

Compound: COc1ccc2cnn(C)c2c1NS(=O)(=O)c1ccc(-n2nnc(C)n2)nc1 [Example I-144, N-(6-Methoxy-1-Methyl-1H-Indazol-7-yl)-6-(5-Methyl-2H-Tetrazol-2-yl)Pyridine-3-Sulfonamide]
IC50 (MALT1): > 2500 nM
IC50 (NF-kB): > 2500 nM

Compound: Cn1ncc2cccc(NS(=O)(=O)c3ccc(-c4cnn(CCO)c4)nc3)c21 [Example I-146, 6-(1-(2-Hydroxyethyl)-1H-Pyrazol-4-yl)-N-(1-Methyl-1H-Indazol-7-yl)Pyridine-3-Sulfonamide]
IC50 (MALT1): > 2500 nM
IC50 (NF-kB): > 2500 nM

Compound: COc1ccc2cnn(C)c2c1NS(=O)(=O)c1ccc(-n2nccc2C2CC2)nc1 [Example I-147, 6-(5-Cyclopropyl-1H-Pyrazol-1-yl)-N-(6-Methoxy-1-Methyl-1H-Indazol-7-yl)Pyridine-3-Sulfonamide]
IC50 (MALT1): > 2500 nM
IC50 (NF-kB): 400 to 1000 nM
